Experimental data as given in US12540129B2, “KIF18A inhibitors” (AMGEN INC., priority 2019, dated 2026).

Each compound was assayed against T1, Recombinant human KIF18A (1-467 His-tagged) protein (Homo sapiens, UniProt Q8NI77) (assay: KIF18A Enzyme Assay: microtubule-stimulated ATPase activity (ADP-Glo)). Conditions: 30 nM KIF18A, 75 μM ATP.
T1 construct: Recombinant human KIF18A (1-467 His-tagged) protein; His; made in house
Assay type: biochemical
Excerpt: KIF18A Enzyme Assay: Microtubule-stimulated ATPase activity assay is used to measure KIF18A enzyme activity after treatment with compound. Compounds were 2-fold serially diluted in DMSO (Sigma Inc) over 22-point concentration range. Recombinant human KIF18A (1-467 His-tagged) protein was expressed using a baculovirus system and purified by affinity chromatography by Amgen Inc. Concentrations of KIF18A protein, microtubules (MT), and ATP in the reaction were optimized for standardized homogenous enzyme assay using ADP-Glorm Kinase/ATPase Assay Kit (Promega Inc). The assay measures ADP formed from the ATPase reaction. […] Read luminescence using EnVision microplate reader with ultra-luminescence module (Perkin Elmer Inc). Concentration-response curve-fitting and IC50 determination was performed using Genedata Screener Software (Standard 15.0.1, Genedata Inc) with a four-parameter logistic regression fit model.
Table A provides data for compounds exemplified in the present application and priority document thereof, as representative compounds of the present invention, as follows: chemical name (as named by either ACD software or ChemDraw (Professional 15.0)) and biological data (IC50 in μM). Ex. # refers to Example No.

T1 sequence (Q8NI77 1-467): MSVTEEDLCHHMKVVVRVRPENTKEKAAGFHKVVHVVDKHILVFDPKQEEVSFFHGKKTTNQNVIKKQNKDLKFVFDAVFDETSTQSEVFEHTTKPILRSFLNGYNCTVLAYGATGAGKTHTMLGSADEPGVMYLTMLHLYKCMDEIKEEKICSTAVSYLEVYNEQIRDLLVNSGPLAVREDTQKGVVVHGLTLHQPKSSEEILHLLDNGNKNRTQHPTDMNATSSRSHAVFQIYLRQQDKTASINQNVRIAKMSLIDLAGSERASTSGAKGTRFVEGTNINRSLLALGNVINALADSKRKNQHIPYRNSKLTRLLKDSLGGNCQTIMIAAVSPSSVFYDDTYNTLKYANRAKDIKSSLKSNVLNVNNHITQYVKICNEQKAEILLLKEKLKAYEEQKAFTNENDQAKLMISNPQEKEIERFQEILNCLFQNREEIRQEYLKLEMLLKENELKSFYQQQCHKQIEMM
T1 sequence (P02550 whole entry partner): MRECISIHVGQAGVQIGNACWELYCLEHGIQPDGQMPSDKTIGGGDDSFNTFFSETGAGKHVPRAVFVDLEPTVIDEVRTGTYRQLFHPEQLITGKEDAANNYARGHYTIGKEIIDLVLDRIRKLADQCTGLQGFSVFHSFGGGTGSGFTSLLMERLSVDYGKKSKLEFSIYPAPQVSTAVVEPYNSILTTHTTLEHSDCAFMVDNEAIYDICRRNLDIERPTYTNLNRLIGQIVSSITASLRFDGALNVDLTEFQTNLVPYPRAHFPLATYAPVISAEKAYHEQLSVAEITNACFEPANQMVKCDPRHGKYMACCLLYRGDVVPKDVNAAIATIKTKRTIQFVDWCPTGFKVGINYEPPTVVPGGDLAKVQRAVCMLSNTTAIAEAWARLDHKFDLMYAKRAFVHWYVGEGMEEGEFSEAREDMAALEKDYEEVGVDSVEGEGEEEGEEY
T1 sequence (P02554 whole entry partner): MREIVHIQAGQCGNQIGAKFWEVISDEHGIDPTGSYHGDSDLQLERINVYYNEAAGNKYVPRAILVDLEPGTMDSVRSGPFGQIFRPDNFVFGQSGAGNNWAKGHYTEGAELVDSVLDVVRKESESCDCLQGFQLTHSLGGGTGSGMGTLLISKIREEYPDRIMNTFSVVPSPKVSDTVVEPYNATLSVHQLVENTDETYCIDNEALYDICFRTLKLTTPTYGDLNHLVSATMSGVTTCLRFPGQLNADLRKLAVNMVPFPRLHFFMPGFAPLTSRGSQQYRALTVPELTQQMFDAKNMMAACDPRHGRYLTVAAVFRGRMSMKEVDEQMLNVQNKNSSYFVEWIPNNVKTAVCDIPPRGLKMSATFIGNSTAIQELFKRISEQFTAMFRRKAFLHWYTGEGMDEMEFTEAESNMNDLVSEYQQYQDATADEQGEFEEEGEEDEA

| Compound | IC50 [nM] |
| --- | --- |
| CC(C)(C)NS(=O)(=O)c1cccc(NC(=O)c2ccc(N3CC[C@H](O)C3)nc2N2CCC3(CC2)CC3)c1 [Example 102-4, (S)-N-(3-(N-(tert-butyl)sulfamoyl)phenyl)-6-(3-hydroxypyrrolidin-1-yl)-2-(6-azaspiro[2.5]octan-6-yl)nicotinamide] | 234 |
| CC(C)(C)NS(=O)(=O)c1cccc(NC(=O)c2ccc(N3C[C@H]4C[C@H]4C3)nc2N2CCC3(CC2)CC3)c1 [Example 102-5] | 191 |
| CC(C)(C)NS(=O)(=O)c1cccc(NC(=O)c2ccc(N3CC[C@@H]4C[C@@H]43)nc2N2CCC3(CC2)CC3)c1 [Example 102-6, 6-((1S,5R)-2-azabicyclo[3.1.0]hexan-2-yl)-N-(3-(N-(tert-butyl)sulfamoyl)phenyl)-2-(6-azaspiro[2.5]octan-6-yl)nicotinamide] | 200 |
| CC(C)(C)NS(=O)(=O)c1cccc(NC(=O)c2ccc(N3CCOCC3)nc2N2CCC3(CC2)CC3)c1 [Example 102-7, N-(3-(N-(tert-butyl)sulfamoyl)phenyl)-6-morpholino-2-(6-azaspiro[2.5]octan-6-yl)nicotinamide] | 238 |
| CC(C)(C)NS(=O)(=O)c1cccc(NC(=O)c2ccc(N3C[C@H]4C[C@@H]3CO4)nc2N2CCC3(CC2)CC3)c1 [Example 102-8, 6-((1R,4R)-2-oxa-5-azabicyclo[2.2.1]heptan-5-yl)-N-(3-(N-(tert-butyl)sulfamoyl)phenyl)-2-(6-azaspiro[2.5]octan-6-yl)nicotinamide] | 104 |
| CC(C)(C)NS(=O)(=O)c1cccc(NC(=O)c2ccc(N3CC[C@H]4CC[C@@H]3O4)nc2N2CCC3(CC2)CC3)c1 [Example 102-9, 6-((1S,5R)-8-oxa-2-azabicyclo[3.2.1]octan-2-yl)-N-(3-(N-(tert-butyl)sulfamoyl)phenyl)-2-(6-azaspiro[2.5]octan-6-yl)nicotinamide] | 127 |
| CC(C)(C)NS(=O)(=O)c1cccc(NC(=O)c2ccc(N3CCC3)nc2N2CCC3(CC2)CC3)c1 [Example 102-10, 6-(azetidin-1-yl)-N-(3-(N-(tert-butyl)sulfamoyl)phenyl)-2-(6-azaspiro[2.5]octan-6-yl)nicotinamide] | 118 |
| CC(C)(C)NS(=O)(=O)c1cccc(NC(=O)c2ccc(N3CC(C#N)C3)nc2N2CCC3(CC2)CC3)c1 [Example 102-11, N-(3-(N-(tert-butyl)sulfamoyl)phenyl)-6-(3-cyanoazetidin-1-yl)-2-(6-azaspiro[2.5]octan-6-yl)nicotinamide] | 159 |
| COC1CN(c2ccc(C(=O)Nc3cccc(S(=O)(=O)NC(C)(C)C)c3)c(N3CCC4(CC3)CC4)n2)C1 [Example 102-12, N-(3-(N-(tert-butyl)sulfamoyl)phenyl)-6-(3-methoxyazetidin-1-yl)-2-(6-azaspiro[2.5]octan-6-yl)nicotinamide] | 591 |
| CC1(O)CN(c2ccc(C(=O)Nc3cccc(S(=O)(=O)NC(C)(C)C)c3)c(N3CCC4(CC3)CC4)n2)C1 [Example 102-13, N-(3-(N-(tert-butyl)sulfamoyl)phenyl)-6-(3-hydroxy-3-methylazetidin-1-yl)-2-(6-azaspiro[2.5]octan-6-yl)nicotinamide] | 196 |
| CC(C)(C)NS(=O)(=O)c1cccc(NC(=O)c2ccc(N3CC(O)(C(F)(F)F)C3)nc2N2CCC3(CC2)CC3)c1 [Example 102-14, N-(3-(N-(tert-butyl)sulfamoyl)phenyl)-6-(3-hydroxy-3-(trifluoromethyl)azetidin-1-yl)-2-(6-azaspiro[2.5]octan-6-yl)nicotinamide] | 280 |
| CC(C)(C)NS(=O)(=O)c1cccc(NC(=O)c2ccc(N3CC(S(C)(=O)=O)C3)nc2N2CCC3(CC2)CC3)c1 [Example 102-15, N-(3-(N-(tert-butyl)sulfamoyl)phenyl)-6-(3-(methylsulfonyl)azetidin-1-yl)-2-(6-azaspiro[2.5]octan-6-yl)nicotinamide] | 182 |
| CC(C)(C)NS(=O)(=O)c1cccc(NC(=O)c2ccc(NC3CCC3)nc2N2CCC3(CC2)CC3)c1 [Example 102-16, N-(3-(N-(tert-butyl)sulfamoyl)phenyl)-6-(cyclobutylamino)-2-(6-azaspiro[2.5]octan-6-yl)nicotinamide] | 221 |
| CC(C)(C)NS(=O)(=O)c1cccc(NC(=O)c2ccc(NC3CC(F)(F)C3)nc2N2CCC3(CC2)CC3)c1 [Example 102-17, N-(3-(N-(tert-butyl)sulfamoyl)phenyl)-6-((3,3-difluorocyclobutyl)amino)-2-(6-azaspiro[2.5]octan-6-yl)nicotinamide] | 294 |
| CC(C)(C)NS(=O)(=O)c1cccc(NC(=O)c2ccc(N[C@@H]3CCC[C@H]3O)nc2N2CCC3(CC2)CC3)c1 [Example 102-18, N-(3-(N-(tert-butyl)sulfamoyl)phenyl)-6-(((1R,2R)-2-hydroxycyclopentyl)amino)-2-(6-azaspiro[2.5]octan-6-yl)nicotinamide] | 107 |
| CC(C)(C)NS(=O)(=O)c1cccc(NC(=O)c2ccc(N[C@H]3CCC[C@H]3O)nc2N2CCC3(CC2)CC3)c1 [Example 102-19, N-(3-(N-(tert-butyl)sulfamoyl)phenyl)-6-(((1S,2R)-2-hydroxycyclopentyl)amino)-2-(6-azaspiro[2.5]octan-6-yl)nicotinamide] | 160 |
| CC(C)(C)NS(=O)(=O)c1cccc(NC(=O)c2ccc(N[C@H]3COC[C@@H]3O)nc2N2CCC3(CC2)CC3)c1 [Example 102-20, N-(3-(N-(tert-butyl)sulfamoyl)phenyl)-6-(((3S,4R)-4-hydroxytetrahydrofuran-3-yl)amino)-2-(6-azaspiro[2.5]octan-6-yl)nicotinamide] | 103 |
| CC(C)(C)NS(=O)(=O)c1cccc(NC(=O)c2ccc(N[C@@H]3CCOC3)nc2N2CCC3(CC2)CC3)c1 [Example 102-21, (R)-N-(3-(N-(tert-butyl)sulfamoyl)phenyl)-2-(6-azaspiro[2.5]octan-6-yl)-6-((tetrahydrofuran-3-yl)amino)nicotinamide] | 134 |
| CC(C)(C)NS(=O)(=O)c1cccc(NC(=O)c2ccc(N[C@@H]3CC[C@H](O)C3)nc2N2CCC3(CC2)CC3)c1 [Example 102-22, N-(3-(N-(tert-butyl)sulfamoyl)phenyl)-6-(((1R,3S)-3-hydroxycyclopentyl)amino)-2-(6-azaspiro[2.5]octan-6-yl)nicotinamide] | 116 |
| CC(C)(C)NS(=O)(=O)c1cccc(NC(=O)c2ccc(N[C@H]3CC[C@H](O)C3)nc2N2CCC3(CC2)CC3)c1 [Example 102-23, N-(3-(N-(tert-butyl)sulfamoyl)phenyl)-6-(((1S,3S)-3-hydroxycyclopentyl)amino)-2-(6-azaspiro[2.5]octan-6-yl)nicotinamide] | 185 |
| CC(C)(C)NS(=O)(=O)c1cccc(NC(=O)c2ccc(N[C@@H]3CCOC[C@H]3O)nc2N2CCC3(CC2)CC3)c1 [Example 102-24, N-(3-(N-(tert-butyl)sulfamoyl)phenyl)-6-(((3S,4R)-3-hydroxytetrahydro-2H-pyran-4-yl)amino)-2-(6-azaspiro[2.5]octan-6-yl)nicotinamide] | 259 |
| CC(C)(C)NS(=O)(=O)c1cccc(NC(=O)c2ccc(NC3COC3)nc2N2CCC3(CC2)CC3)c1 [Example 102-25, N-(3-(N-(tert-butyl)sulfamoyl)phenyl)-6-(oxctan-3-ylamino)-2-(6-azaspiro[2.5]octan-6-yl)nicotinamide] | 84 |
